Data published in PubChem BioAssay (NCI).
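Compound exposure: 48 hours, 5 concentrations, 96-well plates. GI50 is the concentration that inhibits growth by half. The concentration for full growth arrest is given as TGI.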

What was measured:
Assay in all cases: growth of human tumour cells (NCI), 48 h
[1] = tested on: COLO 205 colon
[2] = tested on: HOP-92 NSCLC
[3] = tested on: HT29 colon
[4] = tested on: IGROV1 ovarian
[5] = tested on: LOX IMVI melanoma
[6] = tested on: MALME-3M melanoma
[7] = tested on: NCI-H522 lung
[8] = tested on: OVCAR-5 ovarian
[9] = tested on: RXF 393 renal
[10] = tested on: SW-620 colon
[11] = tested on: UACC-257 melanoma

SMILES | TGI [1] [µM] | TGI [2] [µM] | TGI [3] [µM] | TGI [4] [µM] | TGI [5] [µM] | TGI [6] [µM] | TGI [7] [µM] | TGI [8] [µM] | TGI [9] [µM] | TGI [10] [µM] | TGI [11] [µM] | GI50 [1] [µM] | GI50 [2] [µM] | GI50 [3] [nM] | GI50 [4] [µM] | GI50 [6] [nM] | GI50 [7] [µM] | GI50 [9] [nM] | GI50 [10] [µM] | GI50 [11] [µM]
Nc1ccc2[nH]c3c(-c4ccccc4)nccc3c2c1 | > 100 | > 100 | > 100 | > 100 | > 100 | > 100 | > 100 | > 100 | > 96.5 | > 100 | > 100 |  |  |  |  |  |  |  |  | 
C[C@]12CCc3nc(Nc4ccccc4)sc3C1=CC[C@@H]1[C@@H]2CC[C@]2(C)/C(=N/NC(N)=S)CC[C@@H]12 | > 100 | > 100 | > 100 | > 100 |  | > 100 | > 100 |  | 5.09 | > 100 | > 100 | 4.49 | 5.59 | 2230 | 3.89 | 3000 | 3.07 | 2180 | 3.09 | 6.1
COc1ccc(/C(Cl)=C(\C=O)c2ccc(F)cc2)cc1OC | 36.8 | 29.3 | 36.3 | > 100 | 30.7 | 72 | 46.5 |  |  | > 100 |  |  |  |  |  |  |  |  |  | 
Cc1[nH]c(=O)[nH]c(=O)c1/C=C/C(=O)O | > 1000 | 62.6 | > 1000 | > 1000 | > 1000 | > 1000 | > 1000 | > 1000 | > 1000 | > 1000 | > 1000 |  |  |  |  |  |  |  |  | 
N=C(N)c1ccc(N=Nc2c(O)ccc3c2[nH]c2ccccc23)cc1 | > 100 | > 100 | > 100 | > 100 |  | > 80.8 | > 100 | 83.1 | > 100 | 4.85 | > 89.1 |  |  |  |  |  |  |  |  | 
O=C(NC(Cc1ccc(I)cc1)C(=O)O)c1ccc(Br)cc1 (configuration not stated) | > 100 | > 100 | > 100 | > 100 | > 100 | > 100 | > 100 | > 100 | > 100 | > 100 | > 100 |  |  |  |  |  |  |  |  | 
COc1cc(Nc2c3ccccc3nc3ccccc23)ccc1NS(C)(=O)=O | 16.1 |  |  | 36.3 | > 100 | 21.7 | 12.9 | 23 |  | > 100 | 24.2 |  |  |  |  |  |  |  |  | 
Cc1ccc(S(=O)(=O)OCC(=O)O)cc1 |  | > 100 | > 100 | > 100 | > 100 | > 100 | > 100 | > 100 | > 100 | > 100 | > 100 |  |  |  |  |  |  |  |  | 
